Activity calls are given as the source filed them. The calls are words filed in the database; no cut-off is given here.

Activity, Drug uptake and Kd data for 1 substance are collected here from ChEMBL document CHEMBL6083182, “Development of Peptide Paratope Mimics Derived from the Anti-ROR1 Antibody and Long-Acting Peptide-Drug Conjugates for Targeted Cancer Therapy” (J Med Chem, 2024).

Data set [1] deals with T1, Inactive tyrosine-protein kinase transmembrane receptor ROR1 (Homo sapiens, UniProt Q01973). Description: Binding affinity to ROR1 positive human MDA-MB-231 cells at 10 uM administered as FITC-labeled compound and measured after 30 mins by Hoechst 33342 staining based confocal fluorescence microscopic analysis. Type of data set: cell-based.
T1 sequence (Q01973 whole entry): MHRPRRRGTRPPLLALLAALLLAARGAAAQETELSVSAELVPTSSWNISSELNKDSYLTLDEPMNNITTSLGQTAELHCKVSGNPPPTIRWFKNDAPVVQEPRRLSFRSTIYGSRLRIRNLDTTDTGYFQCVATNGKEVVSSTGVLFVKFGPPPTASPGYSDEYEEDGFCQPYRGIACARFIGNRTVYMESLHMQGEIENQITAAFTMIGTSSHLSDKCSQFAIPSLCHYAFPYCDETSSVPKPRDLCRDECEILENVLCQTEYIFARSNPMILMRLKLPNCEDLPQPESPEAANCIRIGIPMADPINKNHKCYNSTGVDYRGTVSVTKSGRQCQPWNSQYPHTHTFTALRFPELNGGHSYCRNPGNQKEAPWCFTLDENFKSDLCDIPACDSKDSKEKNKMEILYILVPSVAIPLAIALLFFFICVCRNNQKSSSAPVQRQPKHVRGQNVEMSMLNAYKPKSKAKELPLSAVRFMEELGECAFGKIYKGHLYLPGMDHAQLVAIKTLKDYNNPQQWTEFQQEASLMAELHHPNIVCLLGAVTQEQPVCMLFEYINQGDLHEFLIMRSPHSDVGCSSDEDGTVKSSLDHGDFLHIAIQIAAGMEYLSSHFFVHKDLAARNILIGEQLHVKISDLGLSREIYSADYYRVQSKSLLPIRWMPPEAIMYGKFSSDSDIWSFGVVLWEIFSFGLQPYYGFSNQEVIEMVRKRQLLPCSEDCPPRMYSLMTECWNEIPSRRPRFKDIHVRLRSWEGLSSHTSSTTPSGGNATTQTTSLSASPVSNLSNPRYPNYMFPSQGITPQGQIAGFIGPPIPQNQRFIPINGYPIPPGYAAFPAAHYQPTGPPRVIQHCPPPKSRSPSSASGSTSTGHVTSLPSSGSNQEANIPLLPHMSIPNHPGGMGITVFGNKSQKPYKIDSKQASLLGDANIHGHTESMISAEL
Data set [2] in a line: Drug uptake in BALB/c nude mouse liver xenografted with human MDA-MB-231 cells assessed as increase in fluorescence signal administered as indocyanine green dye conjugate and measured after 1 hrs by ex-vivo imaging analysis. Type of data set: ADME, tissue-based. In general terms: Xenograft models place foreign cells or tissue in a host animal.
The nature of data set [3]: Drug uptake in ROR1 positive human MDA-MB-231 cells administered as FITC-labeled compound and measured after 30 to 120 mins by Hoechst 33342 staining based confocal fluorescence microscopic analysis. Type of data set: ADME, cell-based. The following applies: time 30-120 min.
Data set [4] can be described thus: Drug penetration in human MDA-MB-231 cell spheroids assessed as fluorescence penetration rate at 10 uM administered as FITC-labeled compound and measured at 1 hrs by dual-color in vivo high-speed two-photon imaging system. The following applies: mda-mb-231, 1 h. The format is ADME.
Data set [5] can be described thus: Drug penetration in human MDA-MB-231 cell spheroids assessed as increase in penetration rate at 10 uM administered as FITC-labeled compound and measured at 0.5 hrs by dual-color in vivo high-speed two-photon imaging system. The format is ADME. Particulars: mda-mb-231, 0.5 h.
Data set [6] can be described thus: Drug uptake in BALB/c nude mouse kidney xenografted with human MDA-MB-231 cells assessed as increase in fluorescence signal administered as indocyanine green dye conjugate and measured after 1 hrs by ex-vivo imaging analysis. Type of data set: ADME, tissue-based.
Data set [7] concerns the target T1, Inactive tyrosine-protein kinase transmembrane receptor ROR1. The data set is described as follows: Binding affinity to N-terminal His/GST-tagged recombinant human ROR1 (453 to 783 residues) extracted from baculovirus infected insect cells assessed as dissociation constant by SPR analysis. A general note: Surface plasmon resonance follows binding to a sensor surface in real time, without labels.

Data set [8] is described as follows: Drug uptake in BALB/c nude mouse tumor xenografted with human MDA-MB-231 cells assessed as increase in fluorescence signal administered as indocyanine green dye conjugate and measured after 0.5 hrs by invivo imaging analysis. The format is ADME, tissue-based, Neoplasm. The following applies: in vivo.
Data set [9] in a line: Drug uptake in BALB/c nude mouse tumor xenografted with human MDA-MB-231 cells assessed as increase in fluorescence signal administered as indocyanine green dye conjugate and measured after 1 hrs by ex-vivo imaging analysis. The format is ADME, tissue-based, Neoplasm.
The next data set has as its system MCF7. The data set is described as follows: Binding affinity to ROR1 negative human MCF7 cells at 10 uM administered as FITC-labeled compound and measured after 30 mins by Hoechst 33342 staining based confocal fluorescence microscopic analysis. Type of data set: functional, cell-based.
Another data set is filed under the species Homo sapiens. The data set is described as follows: Binding affinity to CD16A (unknown origin) by SPR analysis.
Data set [10] can be described thus: Drug distribution in BALB/c nude mouse tumor xenografted with human MDA-MB-231 cells assessed as increase in fluorescence signal administered as indocyanine green dye conjugate and measured after 1 hrs by DAPI staining based immunofluorescence analysis. Type of data set: ADME, tissue-based, Neoplasm. The following applies: in vivo.

The Kd is the constant that tells how readily two partners part at equilibrium. H-SDINDRQIPGYSTYWGDF-NH2: in data set [1], the outcome was Active. Besides, the Drug uptake entry in data set [2] is reported as “Active”; in [3], “Active”; in [4], ~ 100%; in [5] it was “Active”; in [6], “Active”; in [8], “Active”. Moreover, the Drug uptake entry in data set [9] and in [10] was “Active” throughout. The Kd in data set [7] was 1.57 nM. For the same substance, the result in the data set with MCF7 was inactive. The Activity entry in the data set filed under Homo sapiens was “Not active; Abnormal Binding Affinity Curves Observed”.
